In patent publication US6300331A, “Naphthalimidobenzamide derivatives” (Taiho Pharmaceutical Co., Ltd., priority 1998, dated 2001):
Where a name gives a salt, the structure may show the parent alone.

Tested on: KB cells
Assay: Cytotoxicity against KB cells (crystal violet dying method)
Type: cell-based
Settings: Homo sapiens; KB cells, 72 hours, 50% proliferation inhibition; read-out: Cytotoxicity [IC50 (μM)]
Protocol: Test 1 Cytotoxicity against KB cells
The residue was re-suspended in an MEM medium containing 10% fetal bovine serum. Then, an equivalent amount of a 0.2% trypan blue solution was added to a portion of the cell suspension, followed by mixing. The number of living cells which had not been dyed with the trypan blue was counted by a hemocytometer and the suspension was diluted and adjusted with the above-described culture medium to give a cell concentration of 1×10^4 cells/ml. Each well of a 96-well plate was inoculated with a 100-μl portion of the resulting suspension, in other words, was inoculated to give a concentration of 1×10^3 cells/well.
To the cells cultured in a CO2 incubator for 24 hours after the inoculation was added 100 μl/well of a medicament solution, followed by culturing for 72 hours. To a control was added 100 μl of an MEM medium.
The cytotoxicity of the medicament was determined from a change in the number of the cells by using the crystal violet dying method.
After washing the plate with water, 100 μl/well of a 0.05% crystal violet solution dissolved in 20% methanol was added to dye the cells therewith for about 15 minutes. The plate was washed to remove the unbound crystal violet, followed by the addition of 100 μl/well of 0.05M NaH2 PO4 /ethanol (1:1 v/v), whereby the crystal violet bound to the cellular protein was extracted.

SMILES | IC50 [µM]
O=C(NCCNCCNC(=O)c1cnc2ccccc2n1)c1cc(C(=O)NCCNCCN2C(=O)c3cccc4cc([N+](=O)[O-])cc(c34)C2=O)cc(N2C(=O)c3cccc4cc([N+](=O)[O-])cc(c34)C2=O)c1 [Example 15, 1-(3-nitro-1,8-naphthalimido)-3-[N-[2-[[2-(3-nitro-1,8-naphthalimido)ethyl]amino]ethyl]carbamoyl]-5-[N-[2-[[2-(quinoxaline-2-carbonylamino)ethyl]amino]ethyl]carbamoyl]benzene trihydrochloride] | 0.21
Cn1cc(NC(=O)c2cc(NC=O)cn2C)cc1C(=O)NCCNCCNC(=O)c1cc(C(=O)NCCNCCN2C(=O)c3cccc4cc([N+](=O)[O-])cc(c34)C2=O)cc(N2C(=O)c3cccc4cc([N+](=O)[O-])cc(c34)C2=O)c1 [Example 38, 1-[N-[2-[[2-[4-(4-formamido-1-methylpyrrole-2-carboxyamido)-1-methylpyrrole-2-carboxamido]ethyl]amino]ethyl]carbamoyl]-3-(3-nitro-1,8-naphthalimido)-5-[N-[2-[[2-(3-nitro-1,8-naphthalimido)ethyl]amino]ethyl]carbamoyl]benzene dihydrochloride] | 6.9
O=C(NCCNCCN1C(=O)c2cccc3cc([N+](=O)[O-])cc(c23)C1=O)c1cc(C(=O)NCCN2CCCC2)cc(N2C(=O)c3cccc4cc([N+](=O)[O-])cc(c34)C2=O)c1 [Example 45, 1-(3-nitro-1,8-naphthalimido)-3-[N-[2-[[2-(3-nitro-1,8-naphthalimido)ethyl]amino]ethyl]carbamoyl]-5-[N-(2-pyrrolidinoethyl)carbamoyl]benzene hydrochloride] | 0.066
CN1CCN(C(=O)c2cc(C(=O)NCCNCCCN3C(=O)c4cccc5cc([N+](=O)[O-])cc(c45)C3=O)cc(N3C(=O)c4cccc5cc([N+](=O)[O-])cc(c45)C3=O)c2)CC1 [Example 56 (B), 1-(4-methylpiperazino)carbonyl-3-(3-nitro-1,8-naphthalimido)-5-[N-[2-[[3-(3-nitro-1,8-naphthalimido)propyl]amino]ethyl]carbamoyl]benzene hydrochloride] | 0.12
O=C(NCCCNCCCN1C(=O)c2cccc3cc([N+](=O)[O-])cc(c23)C1=O)c1cc(C(=O)NCCCNCCCN2C(=O)c3cccc4cc([N+](=O)[O-])cc(c34)C2=O)cc(N2C(=O)c3cccc4cc([N+](=O)[O-])cc(c34)C2=O)c1 [Example 11, 1,3-bis[N-[3-[[3-(3-nitro-1,8-naphthalimido)propyl]amino]propyl]carbamoyl]-5-(3-nitro-1,8-naphthalimido)benzene dihydrochloride] | 0.14
O=C(NCCNCCN1C(=O)c2cccc3cccc(c23)C1=O)c1cc(C(=O)NCCN2CCCCC2)cc(N2C(=O)c3cccc4cc([N+](=O)[O-])cc(c34)C2=O)c1 [Example 47, 1-[N-[2-[[2-(1,8-naphthalimido)ethyl]amino]ethyl]carbamoyl]-3-(3-nitro-1,8-naphthalimido)-5-[N-(2-piperidinoethyl)carbamoyl]benzene hydrochloride] | 0.0035
O=C(NCCNCCN1C(=O)c2cccc3cccc(c23)C1=O)c1cc(C(=O)NCCNCCN2C(=O)c3cccc4cccc(c34)C2=O)cc(N2C(=O)c3cccc4cccc(c34)C2=O)c1 [Example 1, 1,3-bis[N-[2-[[2-(1,8-naphthalimido)ethyl]amino]ethyl]carbamoyl]-5-(1,8-naphthalimido) benzene dimethanesulfonate] | 0.059
CCN1CCN(C(=O)c2cc(C(=O)NCCNCCN3C(=O)c4cccc5cccc(c45)C3=O)cc(N3C(=O)c4cccc5cc([N+](=O)[O-])cc(c45)C3=O)c2)CC1 [Example 53, 1-(4-ethylpiperazino)carbonyl-3-[N-[2-[[2-(1,8-naphthalimido)ethyl]amino]ethyl]carbamoyl]-5-(3-nitro-1,8-naphthalimido)benzene hydrochloride] | 0.013
